Results taken from patent publication US20240016784A1, “Y BOX BINDING PROTEIN 1 INHIBITORS” (Oregon Health & Science University, priority 2020, published 2024).

Key:
[1] = test system: MDA-MB-231, MDA-MB-468 and SUM 159 cells; experiment: Cell cycle distribution in TNBC cells (flow cytometry); format: cell-based; details: 12 and 24 hr
Experimental: FIG. 11A). The growth inhibitory effect of SU056 was evaluated using MTT assay. TNBC cell lines (MDA-MB-231, MDA-MB-468, SUM159, 4T1, E0771 and EMT6) were plated in 96 well plate. Next day, treated with vehicle (DMSO) alone or 0.005-50 μM of SU056 in fresh medium. After 48 hr of treatments, cell viability was measured using MTT assay. FIG. 11B). A total of 300-600 cells were plated per well of a 12-well plate and allowed to attach for 24 hr. […] Representative colony formations from respective wells of cell. FIG. 11C) Number of colonies formed after SU056 treatment. FIG. 11D) Effect of SU056 on cell cycle distribution in TNBC cells. MDA-MB-231, MDA-MB-468 and SUM 159 cells were treated with vehicle or SU056 for 12 and 24 hr. At the end of treatment, cells were collected and analysed using flow cytometry. […] SU056 induces level of phosphor-Histone H3 in cells at 12 and 24 hr.

[2] = test system: OVCAR-8 and ID8 cells; experiment: Clonogenic assay; format: cell-based
Experimental: We tested the relationship between AzPs dose and the viability of human ovarian cancer cell lines and the ID8 murine ovarian cancer cell line.
Clonogenic assay: 300 suspended OC cells were plated in each well of 12 well plates (Corning-Costar, #3598) and incubated for 24 h for attachment. The media was replaced after 24 h with media containing a respective concentration of the test compound and incubated for 5-8 days until visible colonies appeared in vehicle-treated wells. Cells were then washed and fixed with 2% paraformaldehyde, followed by washing and staining with 0.5% Crystal violet for 1 h. Cells were de-stained using DI water and allowed to dry. Colonies were counted under the microscope at 100× magnification.
(§1) FIG. 1A) Lead optimization of SU093 to obtain SU056. FIG. 1B) IC50 values of SU093 and SU056 on various ovarian cancer cells. Clonogenic survival of OC cells treated with SU093 or SU056. […] FIG. 1C) Representative colony formation from respective wells. FIG. 1D) Number of colonies formed after SU093 and SU056 treatment. […] FIG. 1F) Cell cycle distribution of propidium iodide (PI)-stained OVCAR8, SKOV3, and ID8 cells. […] FIG. 1G) Effects of SU093 and SU056 on apoptotic cell death analyzed by Annexin-FITC staining. […] FIG. 1H) Cell migration assay.

[3] = test system: NCI-H322M; experiment: NCI-60 cell line panel; format: cell-based; details: Homo sapiens, 48 hours
From the text: (§2) FIG. 17: Assay of SU056 in NCI-60 cell line panel.

[4] = test system: DU-145; experiment: NCI-60 cell line panel; format: cell-based; details: Homo sapiens, 48 hours
From the text: as §2

[5] = test system: LOX IMVI; experiment: NCI-60 cell line panel; format: cell-based; details: Homo sapiens, 48 hours
From the text: as §2

[6] = test system: SNB-75; experiment: NCI-60 cell line panel; format: cell-based; details: Homo sapiens, 48 hours
From the text: as §2

[7] = test system: MDA-MB-231/ATCC; experiment: NCI-60 cell line panel; format: cell-based; details: Homo sapiens, 48 hours
From the text: as §2

[8] = test system: OVCAR-3; experiment: NCI-60 cell line panel; format: cell-based; details: Homo sapiens, 48 hours
From the text: as §2

[9] = test system: A549/ATCC; experiment: NCI-60 cell line panel; format: cell-based; details: Homo sapiens, 48 hours
From the text: as §2

[10] = test system: COLO 205; experiment: NCI-60 cell line panel; format: cell-based; details: Homo sapiens, 48 hours
From the text: as §2

[11] = test system: SNB-19; experiment: NCI-60 cell line panel; format: cell-based; details: Homo sapiens, 48 hours
From the text: as §2

[12] = test system: SR; experiment: NCI-60 cell line panel; format: cell-based; details: Homo sapiens, 48 hours
From the text: as §2

[13] = test system: MDA-MB-435; experiment: NCI-60 cell line panel; format: cell-based; details: Homo sapiens, 48 hours
From the text: as §2

[14] = test system: HOP-92; experiment: NCI-60 cell line panel; format: cell-based; details: Homo sapiens, 48 hours
From the text: as §2

[15] = test system: MOLT-4; experiment: NCI-60 cell line panel; format: cell-based; details: Homo sapiens, 48 hours
From the text: as §2

[16] = test system: SK-OV-3; experiment: NCI-60 cell line panel; format: cell-based; details: Homo sapiens, 48 hours
From the text: as §2

[17] = test system: NCI/ADR-RES; experiment: NCI-60 cell line panel; format: cell-based; details: Homo sapiens, 48 hours
From the text: as §2

[18] = test system: OVCAR8, SKOV3, and ID8 cells; experiment: Cell cycle analysis (propidium iodide, flow cytometry); format: cell-based
Experimental: To determine whether proliferation inhibition was the dominant factor driving the reduction in OC viability seen with AzP treatment, we used propidium iodide and annexin-FITC stains with flow cytometry to measure the distribution of cell cycle phases after treatment. […] Furthermore, in the Boyden chamber assay for cell migration, SU093 inhibited cell migration by 40-46% (1 μM, P<0.05) in different OC cell lines.
Cell cycle analysis: 30,000 OC cells were plated in each well of 12 well plates and incubated for 24 h. […] Both live and dead cells were collected via trypsinization and cell pellets were fixed with 70% ethanol. Fixed cells were stained using propidium iodide (PI) cocktail (80 μg/mL RNase A and 50 μg/mL PI in saponin-EDTA solution) and incubated at 4° C. overnight. Each sample was analyzed using a Guava® easyCyte™ Flow Cytometer (Millipore, Burlington, MA). FlowJo software calculated the % cells in each cell cycle phase.
as §1

[19] = test system: protein translation associated molecules; experiment: Western blot of translation associated molecules in TNBC cells; format: cell-based; details: 12 and 24 hr; MDA-MB-231, MDA-MB-468, SUM 159
Experimental: FIGS. 12A-12C. TNBC cells were treated for 12 and 24 hr and total cell lysate were prepared. SDS-PAGE and western blot analyses were performed for translation associated molecules. Beta-actin were probed to ensure equal protein loading.

[20] = test system: 4T1 tumor xenograft; experiment: 4T1 tumor xenograft; format: in vivo, BALB/c mice; details: SU056 50 mg/kg, oral gavage
Experimental: Mice were subcutaneously injected with 4T1 cells and drug treatment started after three day of implantation. Mice were given either vehicle (40% PEG in saline) or SU056 (50 mg/kg) through oral route using oral gavage. FIG. 14A) Tumor volume (4T1) as a function of time. FIG. 14B) Tumor weight (4T1) at the end of the study. FIG. 14C) Body weight (4T1) as a function of time. FIG. 14D) Representative images of tumor (4T1) at the end of study. Combination of Paclitaxel and SU056 in 4T1 xenograft model. FIG. 14E) Tumor volume (4T1) as a function of time. FIG. 14F) Tumor weight (4T1) at the end of the study. FIG. 14G) Body weight (4T1) as a function of time.

Question: Which results are given for `O=C1OCC2=C1C(c1cccc(F)c1)c1cc3c(cc1N2CCO)OCO3` (stereo not drawn) [SU056, 9-(3-fluorophenyl)-5-(2-hydroxyethyl)-6,9-dihydro-[1,3]dioxolo[4,5-g]furo[3,4-b]quinolin-8(5H)-one]?
Answer: cell cycle distribution in TNBC cells [1]: G2/M phase arrest; OC colony formation [2]: decreased OC colony formation in a dose-dependent and significant manner; IC50 [3]: 4010 nM; IC50 [4]: 2710 nM; IC50 [5]: 2350 nM; IC50 [6]: 820 nM; IC50 [7]: 3090 nM; IC50 [8]: 1270 nM; IC50 [9]: 8740 nM; IC50 [10]: 1460 nM; IC50 [11]: 3000 nM; IC50 [12]: 294 nM; IC50 [13]: 187 nM; IC50 [14]: 3100 nM; IC50 [15]: 3020 nM; IC50 [16]: 1730 nM; IC50 [17]: 2020 nM; cell cycle distribution ([18]; 12 h treatment, PI-stained OVCAR8, SKOV3, ID8): G1 phase arrest; cell cycle arrest, comparison of SU056 with SU093 ([18]; OC lines): greater cell cycle arrest than SU093; protein translation associated molecules (western blot) [19]: inhibited the protein translation associated molecules; 4T1 tumor xenograft growth [20]: inhibit 4T1 tumor xenograft
